Where two headings read alike, the source gives them in different places.
Legend:
HIVNL4-3 M184V = format: cell-based, HIV-1; conditions: for concentration of the drug in the combination with L-CCA giving Fa: NL4-3cloneM184V, combined with L-CCA
Protocol: (§1) For each of these HIV clones, the ED50 was determined for the anti-HIV compounds ZDV, DDC, DDI, the protease inhibitor (PI) Nelfinavir (provided by Agouron Pharmaceuticals, San Diego), and L-CCA.
(§2) Molecular clones of HIV included wild-type HIVNL4-3, HIVNL4-3 M184V, and HIVNL4-3 JF26/A7, All three clones were a generous gift from P. Krogstad (UCLA, Los Angeles, Calif.). Viruses were initially, transfected in adherent HeLa cells using Lipofectin®. After 48 hours, H9 cells were added. Following 24 hours of co-culture, non-adherent cells were removed and cultured. Cells were monitored by indirect immunofluorescence and RT release as described below until the culture was 100% infected by HIV-1. Supernatant fluids were collected and clarified of cells by low-speed centrifugation followed by filtration through 0.45 μm filters.
(§3) Anti-HIV activity of compounds was determined both alone and in combination using a cytopathicity based assay as described above. […] The fifty-percent effective dose (ED50) was calculated for triplicate infections. Mean ED50 (shown in FIG. 5) were calculated for each drug against each HIV variant from a minimum of three experiments performed in triplicate.
(§4) Experiments were designed at a fixed ratio of drugs; the ratio for each drug combination was determined based on the ED50 of each drug alone against each HIV variant. Combination indices were calculated on representative experiments performed in triplicate according to the following formula of Chou and Talalay: fa/fu=(D/Dm)^m
(§5) Where fa is the fraction affected by the dose, fu is the unaffected fraction, D is the dose of the drug, Dm is the median-effect dose determined to be the x-intercept of the median-effect plot, and m is the sigmoidicity of the dose-effect curve, determined by the slope of the median-effect plot. The median effect plot is based on the following equation: log(fa/fu)=^m log (D)−m log (Dm)

HIV-1NL4-3clone1-D4 = format: cell-based
Protocol: (§6) Cloning and sequencing of virus from the HIVNL4-3 passaged in the presence of 8 μM L-chicoric acid was undertaken to determine the molecular basis for resistance to L-chicoric acid and to isolate a resistant HIV clone.
This cloning was accomplished through site-directed mutagenesis introducing several silent mutations immediately upstream and downstream of the integrase gene. These mutations generated two unique restriction sites: an upstream SacII and a downstream XbaI (FIG. 15). Introduction of these mutations allowed the entire integrase gene with only minimal upstream and downstream nucleotides to be digested and “swapped” between drug-resistant and drug-sensitive clones.

HIVNL4-3 clone 7-1 = format: cell-based, HIV-1; conditions: NL4-3clone7-1, combined with L-CCA
HIVNL4-3 JF26/A7 = conditions: for concentration of the drug in the combination with L-CCA giving Fa: NL4-3cloneJF26/A7, combined with L-CCA
Protocol: as §1, §2, §3, §4, §5

MT-2 cells = conditions: 48 hours
From the text: The chemical structures of the compounds are illustrated in FIGS. 1-4. In FIG. 1a, the D- and meso-isomers of L-chicoric acid are identical in this illustrative format. […] The first compound in Table 1, L-chicoric acid, a previously described DCTA, is included for reference. LD5, the 5% lethal dose, is a measure of the toxicity of compound to living, cultured cells. It is the concentration at which cell growth is inhibited by 5%. […] Most simply understood, disintegration is a term used to refer to the reverse of integration.
Cell toxicity and anti-HIV assays were performed as reported above. […] Cells were incubated with drug for 48 hours at 37° C., then harvested for cell viability in a neutral red dye assay as described.

HIVLAI = test: Anti-HIV assay, protection from HIV-induced cell death; format: cell-based; conditions: read-out: ED50 (concentration that inhibits HIV-induced cell death by 50%)
Protocol: Anti-HIV assays were performed as described above. […] The compounds were then two-fold serially diluted in triplicate. To each 50 μl of diluted compound, 50 μl of HIVLAI was added and the virus-drug mixture was incubated for 1 hr at 37° C. […] Final multiplicity of infection (MOI) was 1-5. Cells were harvested to quantitate cytopathic effect using a neutral red dye assay as described.

HIV-1 IN = HIV-1 IN (Human immunodeficiency virus type 1 group M subtype B, UniProt P12497); test: biochemical
HIV-1NL4-3 = test: Anti-HIV cytopathicity assay against parental molecular clone; format: cell-based; conditions: mean of triplicate infections; read-out: ED50 HIVNL4-3
Protocol: as §6
Assays, as described above, to determine the ED50 for a given compound against the molecular clone HIVNL4-3clone1-D4 and the parental clone HIVNL4-3 give an indication of the selectivity of the compound for inhibition of HIV replication through IN. Resistance to a compound, as measured by an increased ED50, by clone HIVNL4-3clone1-D4, implies selectivity of the compound for IN. Thus clone HIVNL4-3clone1-D4 can be used to screen candidate IN inhibitors for selectivity.

[1] = Human immunodeficiency virus 1, MT2, 72 h

OC[C@@H]1CC[C@H](n2cnc3c(O)ncnc32)O1 [DDI, 2′,3′-dideoxyinosine]
susceptibility of the clone to the drug alone (HIVNL4-3 M184V; clone with methionine to valine mutation in RT): partial resistance

Cc1cn([C@H]2C[C@H](N=[N+]=[N-])[C@@H](CO)O2)c(=O)[nH]c1=O [Zidovudine, zidovudine]
sensitivity of the clones to the drug compared with parental HIVNL4-3 (HIV-1NL4-3clone1-D4; clones 7-1, 7-3 and 1-D4, FIG. 16a): same sensitivity
concentration of the drug in the combination with L-CCA giving Fa (HIVNL4-3 clone 7-1; Fa 0.2): 2.7 nM
concentration of the drug in the combination with L-CCA giving Fa (HIVNL4-3 clone 7-1; Fa 0.4): 8.7 nM
concentration of the drug in the combination with L-CCA giving Fa (HIVNL4-3 clone 7-1; Fa 0.6): 22.9 nM
concentration of the drug in the combination with L-CCA giving Fa (HIVNL4-3 clone 7-1; Fa 0.8): 73.8 nM
concentration of the drug in the combination with L-CCA giving Fa (HIVNL4-3 clone 7-1; Fa 0.9): 194 nM
concentration of the drug in the combination with L-CCA giving Fa (HIVNL4-3 M184V; Fa 0.2): 4.9 nM
concentration of the drug in the combination with L-CCA giving Fa (HIVNL4-3 M184V; Fa 0.4): 10.2 nM
concentration of the drug in the combination with L-CCA giving Fa (HIVNL4-3 M184V; Fa 0.6): 18.9 nM
concentration of the drug in the combination with L-CCA giving Fa (HIVNL4-3 M184V; Fa 0.8): 39.6 nM
concentration of the drug in the combination with L-CCA giving Fa (HIVNL4-3 M184V; Fa 0.9): 73 nM
concentration of the drug in the combination with L-CCA giving Fa (HIVNL4-3 JF26/A7; Fa 0.2): 150.2 nM
concentration of the drug in the combination with L-CCA giving Fa (HIVNL4-3 JF26/A7; Fa 0.4): 259.8 nM
concentration of the drug in the combination with L-CCA giving Fa (HIVNL4-3 JF26/A7; Fa 0.6): 409 nM
concentration of the drug in the combination with L-CCA giving Fa (HIVNL4-3 JF26/A7; Fa 0.8): 707 nM
concentration of the drug in the combination with L-CCA giving Fa (HIVNL4-3 JF26/A7; Fa 0.9): 1112 nM
susceptibility of the clone to the drug alone (HIVNL4-3 JF26/A7; HIVNL4-3 JF26/A7): highly resistant

O=C(C=Cc1ccc(O)c(O)c1)NCC(NC(=O)C=Cc1ccc(O)c(O)c1)C(=O)O (stereo not drawn) [Compound 35, 2-3-dicaffeoyldiamidopropionic acid]
LD5 (5% lethal dose, concentration at which cell growth is inhibited by 5%) (MT-2 cells): 50 µM
EC50 (HIVLAI; [1]): 70000 nM
IC50 (HIV-1 IN): 570 nM

O=C(O)C(=Cc1ccc(O)c(O)c1)C(=Cc1ccc(O)c(O)c1)C(=O)O [Compound 37, Di-3,4-dihydroxybenzylidene succinic acid]
LD5 (5% lethal dose, concentration at which cell growth is inhibited by 5%) (MT-2 cells): 35 µM
EC50 (HIVLAI; [1]): 8700 nM
IC50 (HIV-1 IN): 2190 nM

O=C(C=Cc1ccc(O)c(O)c1)Nc1ccc(C(=O)O)cc1NC(=O)C=Cc1ccc(O)c(O)c1 [Compound 36, Bis-3,4-dicaffeoyldiamidobenzoic acid]
LD5 (5% lethal dose, concentration at which cell growth is inhibited by 5%) (MT-2 cells): 47 µM
EC50 (HIVLAI; [1]): 4600 nM
IC50 (HIV-1 IN): 734 nM

O=C(O[C@@H](C(=O)O)[C@@H](OC(=O)c1ccc(O)c(O)c1)C(=O)O)c1ccc(O)c(O)c1 [Compound 26]
LD5 (5% lethal dose, concentration at which cell growth is inhibited by 5%) (MT-2 cells): 90 µM
EC50 (HIVLAI; HIVLAI, MT-2 cells, 72 hr): 950 nM
EC50 (HIV-1NL4-3): 820 nM
Fold Change (ED50 resistant clone vs HIVNL4-3) (HIV-1NL4-3clone1-D4; HIVNL4-3clone1-D4 vs HIVNL4-3): 64
efficacy against the L-chicoric acid resistant clone (HIV-1NL4-3clone1-D4; compared with parental HIVNL4-3): reduced efficacy
EC50 (HIV-1NL4-3clone1-D4; mean of triplicate infections, read-out: ED50 HIVNL4-3clone1-D4): 52500 nM

O=C(C=Cc1ccc(O)c(O)c1)NCCCCC(NC(=O)C=Cc1ccc(O)c(O)c1)C(=O)O [Compound 41, 1,4-dicaffeoyl-L-lysine]
LD5 (5% lethal dose, concentration at which cell growth is inhibited by 5%) (MT-2 cells): 29.2 µM
EC50 (HIVLAI; [1]): 3700 nM
IC50 (HIV-1 IN): 2230 nM
